The values below come from ChEMBL document CHEMBL1932919, “Dirlotapide as a model substrate to refine structure-based drug design strategies on CYP3A4-catalyzed metabolism” (Bioorg Med Chem Lett, 2012).

The data set has as its system Liver microsomes. The experiment in a line: Drug metabolism in human liver microsomes at 20 mM. It is filed as ADME, Microsome. As to conditions: 20000 µM; call rule not given here. In general terms: Microsomes from liver hold many membrane-bound enzymes, among them those of drug oxidation.

With `CN(Cc1ccccc1)C(=O)[C@@H](NC(=O)c1cc2cc(NC(=O)c3ccccc3-c3ccc(C(F)(F)F)cc3)ccc2n1C)c1ccccc1` [DIRLOTAPIDE], the Drug metabolism entry is “Active”.
